In patent publication US8318812B2, “Therapeutic agents for the treatment of lymphoid malignancies” (The Ohio State University Research Foundation, priority 2006, dated 2012):

Key:
Cyclin D1 = assay: Western blot of Cyclin D1 in Mino cell line; type: cell-based, Human
Experimental: Primary MCL cells were isolated from PBMC (with informed patient consent under a protocol approved by IRB) as described before. All the MCL patients were identified as outlined by the World Health Organization (WHO) classification. Human mantle cell lymphoma patient cell lines (Mino and Jeko) were obtained from Dr. Raymond Lai. Primary cells or MCL cell lines were incubated in RPMI 1640 media, supplemented with 10%-20% heat-inactivated fetal bovine serum, 2 mM L-glutamine and penicillin (100 U/mL)/streptomycin ([…]) at 37° C. in an atmosphere of 5% CO2. FTY720 was synthesized as previously described. Toxicity was determined by flow cytometry using Annexin-V-FITC and Propidium Iodide (PI) staining. Apoptotic cells were identified as Annexin-V+ and/or PI+ cells. Cells excluding both FITC and PI were considered viable. Western Blotting was performed as described previously using indicated antibodies. […]
FTY720 induced apoptosis is associated with down-modulation of Cyclin D1 and Akt. […] To determine if the FTY720 induced apoptosis is mediated through modulation of these targets relevant to the pathogenesis of the disease, we evaluated the effect of FTY720 on levels of Cyclin D1, p-Akt and Akt proteins by Wester Blotting analysis using specific antibodies in primary MCL cells and cell lines. […]

AML cell lines [1] = assay: Annexin V/PI apoptosis assay in AML cell lines; type: cell-based; conditions: 48 hours
Experimental: Cell cultures were exposed to vehicle control and increasing doses of FTY720 for 48 hours. Cells were then stained with Annexin V (AnnV) and propidium iodide (PI), and analyzed using routine flow cytometry. Percentage of viable cells (AnnV− PI−), cells undergoing apoptosis (AnnV+ PI−), and necrotic cells (AnnV+ PI+) are represented for each cell line studied in FIG. 10A.

Mino cells = assay: Cell cycle analysis by flow cytometry in Mino cells; type: cell-based, Human; conditions: compared to vehicle control
Experimental: Deregulated cyclin D1 expression contributes to cell cycle defects in MCL cells. […] Mino cells were treated with FTY720 for 12, 24 and 48 hrs and subjected to cell cycle analysis by flow cytometry. […] This decrease in S phase is entry is further reflected by accumulation of cells in G1 phase of the cell cycle.

AML cell lines [2] = assay: Cell cycle analysis (propidium iodide DNA content) in AML cell lines; type: cell-based; conditions: 1 uM and 10 uM, 48 hours
Experimental: Cell suspensions were treated with vehicle control, 1 uM, and 10 uM FTY720 for 48 hours. After fixation in ethanol, samples were stained with propidium iodide, and assessed for DNA content. Percentage of cells in subG1, G1, S, and G2-M for each cell line are depicted (FIG. 11A) with representative plots below for MV411 (FIG. 11B). Although cell cycle arrest is not seen, induction of apoptosis is noted by the increased fraction of sub G1 with FTY720 treatment.

[3] = system: MEC, Ramos, Raji, 697 and RS4-11 B cell lines; assay: Annexin V/PI viability by flow cytometry in B cell lines; type: cell-based, Human; conditions: 0.6-10 uM FTY720; 24 and 48 hours
Experimental: Cells: Blood was obtained from patients with B-cell CLL with informed consent under a protocol approved by the hospital internal review board. All patients examined in this series had immunophenotypically defined CLL as outlined by the modified 96 National Cancer Institute criteria. B-CLL cells were isolated from freshly donated blood using ficoll density gradient centrifugation (Ficoll-Paque Plus, Amershan Biosciences, Piscataway, N.J.). Isolated mononuclear cells were incubated in RPMI 1640 media (Gibco/Invitrogen, Carlsbad, Calif.) supplemented with 10% heat-inactivated fetal bovine serum (FBS, Hyclone Laboratories, Logan, Utah), 2 mM L-glutamine (Invitrogen, Carlsbad, Calif.), and penicillin (100 U/mL)/streptomycin (100 μg/ml) [Sigma-Aldrich, St. Louis] at 37° C. in an atmosphere of 5% CO2. Freshly isolated B-CLL cells were used in all experiments described herein. […]
Analysis of cell viability and apoptosis: The cell viability was carried out by dual staining with Annexin V conjugated to flourescein-isothyocyanate (FITC) and Propidium iodide (PI) as described previously. Briefly, 1×10^6 cells were stained with Annexin V-FITC (BD Pharmingen) and Propidium iodide (BD Pharmingen) for 15 minutes in dark and analyzed by flow cytometry using a Beckman-Coulter EPICS XL cytometer (Beckman-Coulter, Miami, Fla.). […]

## CCCCCCCCc1ccc(CCC(N)(CO)CO)cc1.Cl [FTY720, 2-Amino-2-[2-(4-octylphenyl)ethyl]propane 1,3-diol hydrochloride]
Cyclin D1
  reduction in Cyclin D1: pronounced inhibition seen as early as 24 hrs
AML cell lines [1]
  apoptosis in AML cell lines: induces apoptosis
Mino cells
  reduction in cells in S-phase: ~48%
AML cell lines [2]
  cell cycle arrest in AML cell lines: does not cause cell cycle arrest
[3]
  viable cells (Annexin V-/PI-): dose dependent inhibition of viable cells
